# Assay results published in ChEMBL document CHEMBL3046294, “Fungicidal properties of the essential oil of Hesperozygis marifolia on Aspergillus flavus link” (2011).
# Active and inactive are the calls of the source. No cut-off for these calls is given here.
# Legend:
# [1] = test system: Aspergillus flavus; assay: Antifungal activity against Aspergillus flavus assessed as inhibition of mycelial growth measured after 72 hr at 28 +/- 1 degC; format: functional, organism-based
# [2] = test system: Frankliniella occidentalis; assay: Insecticidal activity against Frankliniella occidentalis (western flower thrips) assessed as mortality at 1 ul/45mL; format: functional
# [3] = test system: Aspergillus flavus; assay: Antifungal activity against Aspergillus flavus assessed as inhibition of mycelial growth measured after 72 hr at 0.8 mg/mL at 28 +/- 1 degC; format: functional, organism-based
SMILES,inhibition [1],mortality [2],inhibition [3]
CC(C)[C@H]1CC[C@H](C)CC1=O (relative stereo),inactive,,
CC(C)[C@H]1CC[C@@H](C)CC1=O (relative stereo),inactive,,
CC(C)=C1CC[C@@H](C)CC1=O [PULEGONE],,100%,Active
